# Experimental data reported in patent US11419806B2, “Prebiotic oral care methods using a saccharide” (Colgate-Palmolive Company, priority 2013, dated 2022).
# Legend:
# Type in all cases: cell-based
# Porphyromonas gingivalis = experiment: Twenty-four hour optical density growth in BHI; conditions: P gingivalis
# Experimental: (§1) The extent of growth of the tested bacteria in response to selected saccharides (myo-inositol, D-lactitol, D-turanose and N-acetyl-D-mannosamine) was investigated by setting up growth curves in a nutritionally rich medium (brain heart infusion broth (BHI), Oxoid), over 24 hours. Late exponential growth phase liquid cultures were prepared by transferring the respective bacterium from blood agar plates to BHI and overnight incubation at 37° C. in an anaerobic atmosphere for A. viscosus, V. parvula, F. nucleatum, P. gingivalis, P. intermedia, T. forsythia, A. naeslundii, and C. sputigena, and in a 5% CO2 environment for S. salivarius, S. sanguinis, S. mitis, A. actinomycetemcomitans, S. mutans, S. sobrinus and S. gordonii. Overnight cultures were transferred to BHI and adjusted to a concentration of 1×10^7 CFU/ml (colony forming units per ml) by measuring the optical density at 600 nm (OD600) (BioRad SmartSpec 3000). For each strain, 200 μl of the bacterial suspension was added to a 96-well plate containing 20 μl of the respective saccharides. Final concentrations of the saccharides were set to 5, 10, 20 and 25 μmol/ml. […] Plates were incubated as previously described.
# (§2) For each combination of bacterium/saccharide, and for each of their respective controls (i.e. the particular bacterium in the nutritionally rich medium with no saccharide), the optical density was measured at 630 nm (OD630) at 0 h and 24 h (Thermo Scientific Multiskan Ascent). Additionally, the OD630 for combinations of bacterium/saccharides grown in a 5% CO2 environment were also measured every hour between 0 h and 9 h.
# (§3) The experiment was carried out on three different days (thus providing 3 biological replicas) and on each day the experiment was carried out in quadruple (thus providing 4 technical replicas) for each combination of bacterium with saccharide and for each control. For each day and for each combination, the average (mean) of the values obtained (as detailed above) for the four technical replicas was calculated to provide a single value for each combination on each day. The values shown in Tables 5a,b to 6a,b, below, are the average (mean) of the three single values obtained for each combination of bacterium with saccharide.
# Tannerella forsythia = experiment: Twenty-four hour optical density growth in BHI; conditions: T forsythia
# Experimental: as §1, §2, §3
# Fusobacterium nucleatum = experiment: Twenty-four hour optical density growth in BHI; conditions: F nucleatum
# Experimental: as §1, §2, §3
# Capnocytophaga sputigena = experiment: Twenty-four hour optical density growth in BHI; conditions: C sputigena
# Experimental: as §1, §2, §3
# Streptococcus gordonii = experiment: Twenty-four hour optical density growth in BHI; conditions: S gordonii
# Experimental: as §1, §2, §3
# Streptococcus mutans = experiment: Twenty-four hour optical density growth in BHI; conditions: S mutans
# Experimental: as §1, §2, §3
# Actinomyces viscosus = experiment: Twenty-four hour optical density growth in BHI; conditions: A viscosus
# Experimental: as §1, §2, §3
# Actinomyces naeslundii = experiment: Twenty-four hour optical density growth in BHI; conditions: A naeslundii
# Experimental: as §1, §2, §3
# [1] = system: beneficial oral bacteria and pathogenic oral bacteria; experiment: Twenty-four hour optical density, overall prebiotic assessment; conditions: concentrations of 5, 10, 20 and 25 μmol/ml
# Excerpt: Substrates that were able to increase the growth (or maximal growth density or extent of growth) of at least one of the above beneficial bacteria while not or only minimally increasing the growth (or maximal growth density) of the pathogenic bacteria are considered to be prebiotic compounds.
# The extent of growth of the tested bacteria in response to selected saccharides (myo-inositol, D-lactitol, D-turanose and N-acetyl-D-mannosamine) was investigated by setting up growth curves in a nutritionally rich medium (brain heart infusion broth (BHI), Oxoid), over 24 hours. Late exponential growth phase liquid cultures were prepared by transferring the respective bacterium from blood agar plates to BHI and overnight incubation at 37° C. in an anaerobic atmosphere for A. viscosus, V. parvula, F. nucleatum, P. gingivalis, P. intermedia, T. forsythia, A. naeslundii, and C. sputigena, and in a 5% CO2 environment for S. salivarius, S. sanguinis, S. mitis, A. actinomycetemcomitans, S. mutans, S. sobrinus and S. gordonii. […]
# as §2
# as §3, with “The values shown in Tables 5a,b to 6a,b, below, are the average (mean) of the three single values obtained for each combination of bacterium with saccharide.” left out
# [2] = system: beneficial oral bacteria and pathogenic oral bacteria; experiment: Twenty-four hour biofilm growth, overall prebiotic assessment; conditions: concentrations of 20 and 25 μmol/ml
# Excerpt: Substrates that were able to increase the biofilm mass of at least one of the above beneficial bacteria while not or only minimally increasing the biofilm mass of the pathogenic bacteria are considered to be prebiotic compounds.
# The increase in biofilm formation of the tested bacteria in response to selected saccharides (D-turanose, D-lactitol, myo-inositol, and N-acetyl-D-mannosamine) was investigated by setting up biofilm growth assays in a nutritionally rich medium (brain heart infusion broth (BHI), Oxoid), over 24 hours. Late exponential growth phase liquid cultures were prepared by transferring the respective bacterium from blood agar plates to BHI and overnight incubation at 37° C. in an anaerobic atmosphere for A. viscosus, V. parvula, P. gingivalis, P. intermedia, T. forsythia, A. naeslundii, and C. sputigena, and in a 5% CO2 environment for S. salivarius, S. sanguinis, S. mitis, A. actinomycetemcomitans, S. mutans, and S. gordonii. Overnight cultures were transferred to BHI and adjusted to a concentration of 1×10^7 CFU/ml by measuring the optical density at 600 nm (OD600) (BioRad SmartSpec 3000). For each strain, 200 μl of the bacterial suspension was added to a 96-well plate containing 20 μl of the respective saccharides. Final concentrations of the saccharides were set to 5, 10, 20 and 25 μmol/ml. […] Additionally, for each bacterium tested, a background control, to correct for background staining, was added. This background control contained the bacterium tested and 0.03 weight % chlorhexidine, as an antiseptic. Plates were incubated as previously described. After 24 hrs the supernatant was removed from the wells of the plates. The wells were washed twice with 1×100 μL PBS (phosphate buffered saline), fixed for 20 minutes with 96% vol. ethanol (96% vol. solution in water) and the biofilm retained at the bottom of the wells was stained with 1 weight % crystal violet (1 weight % solution in water). The bound dye was dissolved with 5% vol. acetic acid (5% vol. solution in water). Quantification of the stained biofilm was performed by measuring the absorbance at 630 nm using a Multiskan Ascent microplate reader (Thermo Scientific).
# as §3, with “and” for “and on”, “7a, 7b, 8a, 8b,” for “5a,b to 6a,b,”, “saccharide. […]” for “saccharide.”
smiles,measurement,setting,value
"OC[C@H]1O[C@@](O)(CO)[C@@H](O[C@H]2O[C@H](CO)[C@@H](O)[C@H](O)[C@H]2O)[C@@H]1O [D-Turanose, α-D-glucopyranosyl-(1→3)-α-D-fructofuranose]",extent of growth: maximal OD630 over 24 hr divided by maximal OD of control (control = 1),Porphyromonas gingivalis; 5 μmol/ml,0.9385
same,extent of growth: maximal OD630 over 24 hr divided by maximal OD of control (control = 1),Porphyromonas gingivalis; 10 μmol/ml,0.9601
same,extent of growth: maximal OD630 over 24 hr divided by maximal OD of control (control = 1),Porphyromonas gingivalis; 20 μmol/ml,0.9183
same,extent of growth: maximal OD630 over 24 hr divided by maximal OD of control (control = 1),Porphyromonas gingivalis; 25 μmol/ml,0.9574
same,extent of growth: maximal OD630 over 24 hr divided by maximal OD of control (control = 1),Tannerella forsythia; 5 μmol/ml,0.9443
same,extent of growth: maximal OD630 over 24 hr divided by maximal OD of control (control = 1),Tannerella forsythia; 10 μmol/ml,0.9445
same,extent of growth: maximal OD630 over 24 hr divided by maximal OD of control (control = 1),Tannerella forsythia; 20 μmol/ml,0.9299
same,extent of growth: maximal OD630 over 24 hr divided by maximal OD of control (control = 1),Tannerella forsythia; 25 μmol/ml,0.9298
same,extent of growth: maximal OD630 over 24 hr divided by maximal OD of control (control = 1),Fusobacterium nucleatum; 5 μmol/ml,0.9458
same,extent of growth: maximal OD630 over 24 hr divided by maximal OD of control (control = 1),Fusobacterium nucleatum; 10 μmol/ml,0.9456
same,extent of growth: maximal OD630 over 24 hr divided by maximal OD of control (control = 1),Fusobacterium nucleatum; 20 μmol/ml,0.9285
same,extent of growth: maximal OD630 over 24 hr divided by maximal OD of control (control = 1),Fusobacterium nucleatum; 25 μmol/ml,0.9348
same,extent of growth: maximal OD630 over 24 hr divided by maximal OD of control (control = 1),Capnocytophaga sputigena; 5 μmol/ml,0.9568
same,extent of growth: maximal OD630 over 24 hr divided by maximal OD of control (control = 1),Capnocytophaga sputigena; 10 μmol/ml,0.9629
same,extent of growth: maximal OD630 over 24 hr divided by maximal OD of control (control = 1),Capnocytophaga sputigena; 20 μmol/ml,0.9558
same,extent of growth: maximal OD630 over 24 hr divided by maximal OD of control (control = 1),Capnocytophaga sputigena; 25 μmol/ml,0.9630
same,extent of growth: maximal OD630 over 24 hr divided by maximal OD of control (control = 1),Streptococcus gordonii; 5 μmol/ml,1.0397
same,extent of growth: maximal OD630 over 24 hr divided by maximal OD of control (control = 1),Streptococcus gordonii; 10 μmol/ml,1.0491
same,extent of growth: maximal OD630 over 24 hr divided by maximal OD of control (control = 1),Streptococcus gordonii; 20 μmol/ml,1.0248
same,extent of growth: maximal OD630 over 24 hr divided by maximal OD of control (control = 1),Streptococcus gordonii; 25 μmol/ml,1.0226
same,extent of growth: maximal OD630 over 24 hr divided by maximal OD of control (control = 1),Streptococcus mutans; 5 μmol/ml,1.0547
same,extent of growth: maximal OD630 over 24 hr divided by maximal OD of control (control = 1),Streptococcus mutans; 10 μmol/ml,0.9829
same,extent of growth: maximal OD630 over 24 hr divided by maximal OD of control (control = 1),Streptococcus mutans; 20 μmol/ml,0.9244
same,extent of growth: maximal OD630 over 24 hr divided by maximal OD of control (control = 1),Streptococcus mutans; 25 μmol/ml,0.9121
same,extent of growth: maximal OD630 over 24 hr divided by maximal OD of control (control = 1),Actinomyces viscosus; 5 μmol/ml,0.3631
same,extent of growth: maximal OD630 over 24 hr divided by maximal OD of control (control = 1),Actinomyces viscosus; 10 μmol/ml,0.3079
same,extent of growth: maximal OD630 over 24 hr divided by maximal OD of control (control = 1),Actinomyces viscosus; 20 μmol/ml,0.2558
same,extent of growth: maximal OD630 over 24 hr divided by maximal OD of control (control = 1),Actinomyces viscosus; 25 μmol/ml,0.2348
same,extent of growth: maximal OD630 over 24 hr divided by maximal OD of control (control = 1),Actinomyces naeslundii; 5 μmol/ml,0.9281
same,extent of growth: maximal OD630 over 24 hr divided by maximal OD of control (control = 1),Actinomyces naeslundii; 10 μmol/ml,0.9561
same,extent of growth: maximal OD630 over 24 hr divided by maximal OD of control (control = 1),Actinomyces naeslundii; 20 μmol/ml,0.9443
same,extent of growth: maximal OD630 over 24 hr divided by maximal OD of control (control = 1),Actinomyces naeslundii; 25 μmol/ml,0.9441
same,"prebiotic effects (extent of growth, threshold value 1.25)",[1],exhibited prebiotic effects
same,"prebiotic effects (biofilm growth, threshold value 1.6)",[2],exhibited prebiotic effects
